Holding throughout (type): biochemical
Assay [1] in a line: SORAC superoxide radical absorbance capacity (USTM 191), in tubo. To be noted: Tables III-VIII; for SORAC: result in words; for SORAC (IC25): cells marked (IC25). How it is done:
Tables I to IX shown below are a compilation of polypeptides studied by the inventors to ascertain those elements of the molecular structure that contribute to or negate antioxidant activity. In the course of the study, polypeptides were prepared by conventional synthesis methods and screened in tubo for antioxidant activity for peroxyl radicals (ROO.), superoxide radicals (O2.^−) and hydroxyl radicals (.OH).
In the screening standard testing for oxygen radical absorbance capacity (ORAC), hydroxyl radical absorbance capacity (HORAC), superoxide radical absorbance capacity (SORAC) and superoxide dismutase activity (SOD) were conducted with the test polypeptides. Testing was conducted according to USTM 190 (HORAC), USTM 191 (SORAC), USTM 192 (ORAC) and USTM 193 (SOAC) (SOD). Upon review of the results as indicated in the Tables, the inventors have discovered certain elements of the polypeptide structure as recited in claim 1 that are key contributors to determination of antioxidant activity.

Assay [2] in a line: ORAC oxygen radical absorbance capacity (USTM 192), in tubo. Conditions: for ORAC: Tables III-IX, unit not given; for ORAC/peroxyl: Table II. The arrangement: ORAC: unit not given here. As to the method:
(§1) In the course of the study, polypeptides were prepared by conventional synthesis methods and screened in tubo for antioxidant activity for peroxyl radicals (ROO.), superoxide radicals (O2.^−) and hydroxyl radicals (.OH).
(§2) In the screening standard testing for oxygen radical absorbance capacity (ORAC), hydroxyl radical absorbance capacity (HORAC), superoxide radical absorbance capacity (SORAC) and superoxide dismutase activity (SOD) were conducted with the test polypeptides. Testing was conducted according to USTM 190 (HORAC), USTM 191 (SORAC), USTM 192 (ORAC) and USTM 193 (SOAC) (SOD).
(§3) The peptides were tested in tubo for their antioxidant properties and tested against reference/known antioxidants. The evaluation of the antioxidant properties were conducted by determination of the ORAC (USTM 192), HORAC (USTM 190) and SOD (USTM 193) test methods.

Assay [3] can be described thus: HORAC hydroxyl radical absorbance capacity (USTM 190), in tubo. The arrangement: HORAC: unit not given here. Conditions: for HORAC: Tables III-IX, unit not given; for HORAC/hydroxyl: Table II. How it is done:
as §1, §2, §3

Assay [4] is described as follows: SOD superoxide dismutase activity (USTM 193), in tubo. Conditions: Table II; for SOD/superoxide, Active25: cells marked (Active25). How it is done:
as §2, §3

The text below walks through data of US9464111B2, “Short peptides and a method of use as an antioxidant” (L'OREAL, priority 2014, dated 2016).

Where no end group is shown, it is not given here.

Turning to WrYR-NH2 [RED20], the SORAC entry in assay [1] was “No capacity”. Also, the ORAC in assay [2] is on record as 4448. This molecule also returned an HORAC in assay [3] of 1666.
As for wRyRw-NH2 [RED29], in assay [1], the SORAC entry was “No capacity”. For the same molecule, in assay [2], the ORAC was 5512.
For wRyRy-NH2 [RED28], in assay [1], the “SORAC (IC25)” value is 3(IC25). Moreover, the ORAC in assay [2] is on record as 5216.
In the case of `O=C1O[C@H]([C@@H](O)CO)C(O)=C1O` [Vitamin C, reference compound], the “SOD/superoxide, Active50” value in assay [4] was 752 U/mg. The molecule further displayed an ORAC/peroxyl in assay [2] of 4456 μmol GAE/g. The HORAC/hydroxyl in assay [3] turned out to be 0 μmol GAE/g.
Consider WRYr-NH2 [RED19], for which the SORAC result in assay [1] was “No capacity”. Further, the ORAC in assay [2] was 4350. The HORAC in assay [3] came out at 1457.
With fkwR-NH2 [RED9], in assay [1], the SORAC result is recorded as “No capacity”. The molecule further returned an ORAC in assay [2] of 2202. In assay [3], the HORAC was found to be 752.
RRH [CP2.6]: the HORAC in assay [3] amounted to 41073.
As to WKYK-NH2 [RED25], the SORAC result in assay [1] is “No capacity”. Further, the ORAC in assay [2] is 4168. In assay [3], the HORAC is reported as 2476.
The like results for “WRYR (not fully specified (C-terminus)) [RED23]” were, in that order, “No capacity”, 4091 and 2089.
For Ac-wRyR-NH2 [RED27], the SORAC result in assay [1] is given as “No capacity”. This molecule also gave an ORAC in assay [2] of 5342.
WrYr-NH2 [RED18]: the SORAC result in assay [1] was “No capacity”. The ORAC in assay [2] is recorded as 4758. In addition, in assay [3], the HORAC was 2982.
Take YHFR [IMM2]: in assay [1], the “SORAC (IC25)” value is on record as 5(IC25). This molecule returned an HORAC in assay [3] of 3036.
With wRwR-NH2 [RED31], the SORAC result in assay [1] is recorded as “No capacity”. In assay [2], the ORAC stood at 4652.
Regarding Ac-EELMSDIKK-NH2 [AC-SYN2], the ORAC result in assay [2] is “No capacity”. Further, the HORAC result in assay [3] is on record as “No capacity”.
Turning to wRYR-NH2 [RED24], the SORAC result in assay [1] is “No capacity”. Also, the ORAC in assay [2] came out at 4077. The same molecule displayed an HORAC in assay [3] of 2225.
Take HRHM [CP2.5]: the ORAC in assay [2] came to 952. The molecule further had an HORAC in assay [3] of 10192.
RYHM [AO2.1]: in assay [2], the ORAC/peroxyl is listed as 5390 μmol GAE/g and the ORAC is 5390. In assay [3], this molecule yielded an HORAC/hydroxyl of 132591 μmol GAE/g and an HORAC of 131574.
Ac-EEMLERQRR-NH2 [AC-SNP3]: in assay [2], the ORAC result was “No capacity”. For the same molecule, in assay [3], the HORAC entry was “No capacity”.
Regarding Ac-DESLESTRRM-NH2 [AC-SNP4], the ORAC entry in assay [2] is “No capacity”. The HORAC entry in assay [3] was “No capacity”.
Ac-KKKEEMQRR-NH2 [AC-SNP7]: the ORAC result in assay [2] is recorded as “No capacity”. Moreover, the HORAC entry in assay [3] is reported as “No capacity”.
For the molecule “Ac-Valérate-EEMQRRKKK-NH2 ({Ac-Valérate}-EEMQRRKKK-NH2; not fully specified; printed as Ac-Valérate-EEMQRRKKK-NH2) [AC-SNP6]”, the ORAC result in assay [2] was “No capacity”. The HORAC entry in assay [3] was “No capacity”.
Regarding Ac-EEVKRK-NH2 [AC-SYN1], in assay [2], the ORAC result is “No capacity”. The HORAC entry in assay [3] is given as “No capacity”.
For the molecule Ac-RRMLQLVEE-NH2 [AC-SNP1], in assay [2], the ORAC result is reported as “No capacity”. Further, in assay [3], the HORAC entry was “No capacity”.
As to YkYkYk [RED34], the ORAC in assay [2] was 355. In assay [3], this molecule returned an HORAC of 1053.
With wRyR-NH2 [RED22], the SORAC entry in assay [1] is “No capacity”. In assay [2], this molecule showed an ORAC of 5383. Further, in assay [3], the HORAC turned out to be 1686.
In the case of CWRYR-NH2 [RED11], in assay [1], the SORAC entry is listed as “No capacity”. Moreover, the ORAC in assay [2] was determined as 2007. Moreover, the HORAC in assay [3] is recorded as 625.
With YWPW [S2], the SORAC result in assay [1] is given as “No capacity”. The same molecule gave an ORAC in assay [2] of 5917.
With “HYHY [AO1, short chain polypeptide of the invention]”, in assay [4], the “SOD/superoxide, Active25” value was 6 (Active25) U/mg. The “SORAC (IC25)” value in assay [1] is listed as 6(IC25). In assay [2], the ORAC/peroxyl was 4748 μmol GAE/g and the ORAC was 4748. In assay [3], this molecule returned an HORAC/hydroxyl of 33489 μmol GAE/g and an HORAC of 33489.
kfRw-NH2 [RED7]: the SORAC result in assay [1] was “No capacity”. The molecule further came in with an ORAC in assay [2] of 2120. In assay [3], the HORAC was 1124.
Consider RRHM [CP2], for which the “SORAC (IC25)” value in assay [1] is 6(IC25). In assay [2], this molecule gave an ORAC/peroxyl of 1204 μmol GAE/g and an ORAC of 1204. In assay [3], this molecule yielded an HORAC/hydroxyl of 321448 μmol GAE/g and an HORAC of 321448.
With HWRF [IMM1], the “SORAC (IC25)” value in assay [1] is 5(IC25). Further, in assay [2], the ORAC was determined as 2422.
Consider RwRyR-NH2 [RED26], for which the SORAC entry in assay [1] is recorded as “No capacity”. Further, the ORAC in assay [2] is given as 4461.
Consider HWPY [S1], for which the “SORAC (IC25)” value in assay [1] is on record as 13(IC25). The molecule also returned an ORAC in assay [2] of 5955.
Regarding RyR-NH2 [RED32], the SORAC entry in assay [1] was “No capacity”. The molecule also registered an ORAC in assay [2] of 3385.
Take KRKYWW-NH2 [RED2]: the SORAC entry in assay [1] is listed as “No capacity”. In addition, the ORAC in assay [2] is listed as 1837. The molecule further came in with an HORAC in assay [3] of 1063.
Consider Ac-EEMQRRKKK-NH2 [AC-SNP5], for which the ORAC entry in assay [2] is “No capacity”. Besides, in assay [3], the HORAC result is “No capacity”.
As for WRYR-NH2 [RED6], the SORAC result in assay [1] is “No capacity”. The molecule also yielded an ORAC in assay [2] of 4488. The HORAC in assay [3] was 1548.
Turning to WRyR-NH2 [RED21], in assay [1], the “SORAC (IC25)” value is recorded as 7(IC25). The ORAC in assay [2] is listed as 4816. In addition, the HORAC in assay [3] was found to be 2472.
As for “RYHW [AO2, short chain polypeptide of the invention]”, the “SOD/superoxide, Active25” value in assay [4] is listed as 4 (Active25) U/mg. The “SORAC (IC25)” value in assay [1] is recorded as 4(IC25). In assay [2], this molecule displayed an ORAC/peroxyl of 9328 μmol GAE/g and an ORAC of 9328. Also, in assay [3], the HORAC/hydroxyl turned out to be 41882 μmol GAE/g and the HORAC came out at 41882.
Regarding `NCCC(=O)N[C@@H](Cc1c[nH]cn1)C(=O)O` [Carnosine, β-alanyl-histidine, reference compound], in assay [4], the “SOD/superoxide, Active50” value was determined as 0 U/mg. This molecule also registered an ORAC/peroxyl in assay [2] of 354 μmol GAE/g. For the same molecule, the HORAC/hydroxyl in assay [3] came to 2099 μmol GAE/g.
